Read-outs that look alike come from different tables or passages of the source.
Experiments:
[1] = tested on: A549 (lung adenocarcinoma); test: MTS cell viability assay, 72 h; type: cell-based
Text: (§1) We then screened STR-V-53 and all the synthesized glycosylated HDACi for their effects on the viability of three cell lines: A549 (lung adenocarcinoma), Hep-G2 (HCC), and VERO (a normal kidney epithelial cell). We used SORA and STR-V-48, a previously disclosed nonglycosylated compound, as controls.[25] […] Additionally, compound STR-V-167, the peracetylated analog of STR-V-53, largely retained the Hep-G2 selectivity of STR-V-53 (Table S2). Subsequently, we evaluated the effects of STR-V-53 on cell proliferation using a panel of human HCC cell lines (Huh-7, SK-Hep-1, and Hep3B) as well as Kupffer cells (liver resident macrophages) by MTS assay. We observed that STR-V-53 is 7- to 16-fold more cytotoxic against these HCC cell lines relative to the Kupffer cells (Figure 1g). […] Based on their weak HDAC and cell proliferation inhibition activities, we de-emphasized further evaluation of the class III compounds.
(§2) 10-017-CV), supplemented with 10% fetal bovine serum (FBS) (Corning, 35-010-CV). Hep-G2 cells were cultured in phenol red-free Minimum Essential Medium (MEM) (Corning, 17-305-CV), supplemented with 10% fetal bovine serum (FBS). SK-Hep-1 in ATCC-formulated EMEM (ATCC® 30–2003™); Huh-7 in DMEM (containing 4 mM L-glutamine and 1 g/L glucose) with […]
(§3) Kupffer Cell Media (Sekisui XenoTech, LLC, Cat. #K8700). Cells were seeded into a 96-well plate (2000 counts/100uL) for 24 h prior to treatment and then treated with various drug concentrations for 72 h. All drugs were dissolved in media with DMSO concentration maintained at 1%. The effect of compounds on cell viability was measured using the MTS assay (CellTiter 96 Aqueous One Solution and CellTiter 96 Non-Radioactive Cell Proliferation Assays, Promega, Madison, WI) as described by the manufacturer. IC50s were determined using Prism GraphPad 8. […]

[2] = tested on: VERO (a normal kidney epithelial cell); test: MTS cell viability assay, 72 h; type: cell-based
Text: as §1, §2, §3

[3] = tested on: Hep-G2 cells; test: Immunoblotting of acetylated histone H4 and α-tubulin; type: cell-based, human; settings: for Acetylation status of histone H4 and α-tubulin: at 1/4 IC50 and 1/2 IC50
Text: To determine the contributions of HDAC inhibition to the antiproliferative activities of the glycosylated HDACi compounds, immunoblotting was used to investigate the acetylation status of histone H4 and α-tubulin, biomarkers for HDAC class I and class IIb intracellular inhibition, respectively,[27] in Hep-G2 cells in response to exposure to representative compounds STR-V-53, STR-V-114, and STR-I-195. We used SAHA as a positive control for HDAC inhibition and GAPDH level as a protein loading control.
(§4) Figure 3 Effects of STR-V-53 on intracellular markers of HDAC inhibition, antitumor immune response, and apoptosis. (a) STR-V-53 upregulates the levels of acetylated H4 and tubulin in Hep-G2 cells. Hep-G2 cells were treated with DMSO or 0.1% DMSO solution of SAHA (1.25 μM) and STR-V-53 (1.25 μM, 2.5 μM). Cells were treated for 5 h before lysis. Data are from two independent experiments. (b) STR-V-53 upregulates PD-L1 and downregulates PD-1 expressions in Hep-G2 cells. Cells were treated with DMSO or 0.1% DMSO solution of SAHA (5 μM and 10 μM) and STR-V-53 (10 and 20 μM) for 24 h. (c) STR-V-53 and SAHA caused upregulation of the levels of CD54 in the Hep-G2 cell line. Cells were treated with DMSO or 0.1% DMSO solution of SAHA (5 and 10 μM) and STR-V-53 (5, 10, and 20 μM) for 24 h. […] Cells were treated with DMSO or 0.1% DMSO solution of SAHA (5 μM) and STR-V-53 (10 and 20 μM).
as §2
Kupffer Cell Media (Sekisui XenoTech, LLC, Cat. #K8700). Cells were seeded into a 96-well plate (2000 counts/100uL) for 24 h prior to treatment and then treated with various drug concentrations for 72 h. All drugs were dissolved in media with DMSO concentration maintained at 1%. The effect of compounds on cell viability was measured using the MTS assay (CellTiter 96 Aqueous One Solution and CellTiter 96 Non-Radioactive Cell Proliferation Assays, Promega, Madison, WI) as described by the manufacturer. IC50s were determined using Prism GraphPad 8.
Western blot protocol was described in our previous works 24,25. In brief, Hep-G2 cells were seeded into a 6-well plate at 1*106/well in MEM for 24-48 h prior to treatment. Various concentrations of SAHA, STR-V-53, STR-V-114, and STR-I-195 solutions in DMSO were added to the cell culture such that the final DMSO level was 0.1%. Cells were treated for 24 h, washed with cold PBS, and lysed with RIPA buffer (120 µL) (VWR, VWRVN653 -100ML) containing phosphatase inhibitor (Fisher Thermo, A32957) and protease inhib itor (Fisher Thermo, A32955). The cell lysates were scraped, collected, and vortexed for 15 s, followed by sonication for 60 s. The lysate was centrifuged at 14000x rpm for 10 min, and the supernatants were collected. The total protein concentration was determined using a BCA protein assay kit (BioVision, K813-2500). Based on the results from the […], the lysates were diluted to make equal protein concentration, and 40 µg of each lysate was loaded to each wel l of the TGX […]
MIDI 4-20% gel (Biorad, cat. 5671093) and ran at 150 V for 70 min. […] After washing with TBS-T 3x5 mins, bands were quantified using the Odyssey CLx Image system. […]

[4] = tested on: Hep-G2 cells; test: Immunoblotting of cleaved Caspase 3 and p21WAF/CIP; type: cell-based, human; settings: for Caspase 3 cleavage (cleaved Caspase 3/Pro-caspase 3): IC50 or 2× IC50 for 18 h; for p21WAF/CIP level: higher concentrations, 18 h
Description: as §4
HDAC inhibition could cause cell apoptosis through caspase cleavage and p21^WAF/CIP upregulation.[37] To probe if our compounds elicit a similar phenotype, we investigated the effects representative examples on the cellular levels of cleaved Caspase 3 and p21^WAF/CIP through immunoblotting.

[5] = target: HDAC1 (Homo sapiens, UniProt Q13547); test: HDAC isoform inhibition (BPS Bioscience)
Chain of HDAC1 (Q13547 whole entry, canonical isoform): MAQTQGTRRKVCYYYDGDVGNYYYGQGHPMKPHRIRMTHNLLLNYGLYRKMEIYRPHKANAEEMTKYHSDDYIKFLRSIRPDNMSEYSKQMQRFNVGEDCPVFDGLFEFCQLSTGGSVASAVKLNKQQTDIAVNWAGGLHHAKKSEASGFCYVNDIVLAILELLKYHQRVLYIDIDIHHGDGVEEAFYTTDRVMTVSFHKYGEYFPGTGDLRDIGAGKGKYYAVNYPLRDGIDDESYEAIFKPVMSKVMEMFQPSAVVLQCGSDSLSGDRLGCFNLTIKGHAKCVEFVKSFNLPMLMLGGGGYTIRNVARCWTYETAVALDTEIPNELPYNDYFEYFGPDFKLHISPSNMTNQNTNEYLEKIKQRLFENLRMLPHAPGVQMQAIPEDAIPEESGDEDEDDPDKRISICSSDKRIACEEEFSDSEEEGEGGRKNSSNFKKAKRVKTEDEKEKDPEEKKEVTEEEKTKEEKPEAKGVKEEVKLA

[6] = Table S2, read-out: Anti-proliferation IC50 A549
[7] = Table S2, read-out: Anti-proliferation IC50 VERO

Structure (SMILES)	IC50 ([1]; Homo sapiens, A549, Figure 1g, read-out: Anti-proliferation effects IC50 (μM) A549) [µM]	IC50 ([2]; Chlorocebus sabaeus, Vero, Figure 1g, read-out: Anti-proliferation effects IC50 (μM) Vero) [µM]	Acetylation status of histone H4 and α-tubulin [3]	Caspase 3 cleavage (cleaved Caspase 3/Pro-caspase 3) [4]	p21WAF/CIP level [4]	IC50 [5] [nM]	IC50 [1, 6] [µM]	IC50 [2, 7] [µM]	Acetylation of H4 and α-Tubulin ([3]; 0.5 μM)	Acetylation of H4 ([3]; 1.25 μM and 2.5 μM)	Acetylation of α-Tubulin ([3]; 1.25 μM and 2.5 μM)	IC50 ([5]; read-out: HDAC1 IC50, Table S1) [nM]
O=C(CCCCCCn1cc(-c2ccc(O[C@H]3O[C@H](CO)[C@@H](O)[C@H](O)[C@H]3O)cc2)nn1)NO [STR-V-53]	> 100	> 100	induced accumulation of acetylated H4 and acetylated tubulin	significant upregulation of cleave Caspase 3/Pro-caspase 3 ratio	upregulated significantly	24.3	–	–	–	–	–	–
O=C(CCCCCCC(=O)Nc1ccccc1)NO [SAHA, vorinostat, reference compound]	–	–	–	showed cleavage of Caspase 3	–	–	–	–	–	–	–	–
O=C(CCCCCCn1cc(-c2ccc(O[C@@H]3O[C@H](CO)[C@@H](O)[C@H](O)[C@H]3O)cc2)nn1)NO [STR-I-195]	–	–	–	showed cleavage of Caspase 3	upregulated significantly	–	> 100	65.5 ± 8.3	did not show significant acetylation	mild acetylation	significant acetylation	14.6
O=C(CCCCCCn1cc(-c2ccc3cc(O[C@H]4O[C@H](CO)[C@@H](O)[C@H](O)[C@H]4O)ccc3c2)nn1)NO [STR-V-114]	–	–	induced accumulation of acetylated H4 and acetylated tubulin	–	–	–	77.2 ± 4.3	34.1 ± 3	–	–	–	20.3

Reference: paper PMC11475281, “A Novel Liver Cancer-Selective Histone Deacetylase Inhibitor Is Effective against Hepatocellular Carcinoma and Induces Durable Responses with Immunotherapy” (ACS Pharmacology & Translational Science, 2024)
